Values joined by “and” are separate entries in the source; they are usually repeats but may differ in a detail not shown here. Equal entries are not always repeated. “Also recorded” adds a separate entry of the source.
Experiments:
Format in all cases: physicochemical
[1] = Slurry in dichloromethane at ambient temperature, solvent mediated form conversion by XRPD; conditions: 16 days, no seeds, hydrochloride
Protocol: (§1) Slurry Experiments: Suspensions are prepared by adding enough solids to a given solvent so that excess solids are present. The mixture is then agitated in a sealed vial at ambient temperature or an elevated temperature. After a given period of time, the solids are isolated by vacuum filtration and analyzed.
558.9 mg of Crystalline Form A from Example 5 above is slurried in 5 mL dichloromethane. The preparation is stirred (300 RPM) in a sealed vial at ambient temperature for 16 days. White solids are isolated by vacuum filtration, rinsed with 1 mL of dichloromethane, and briefly dried under nitrogen. […] The XRPD pattern is collected with a PANalytical X'Pert PRO MPD diffractometer using an incident beam of Cu radiation produced using an Optix long, fine-focus source. An elliptically graded multilayer mirror is used to focus Cu Kα X-rays through the specimen and onto the detector. Prior to the analysis, a silicon specimen (NIST SRM 640e) is analyzed to verify the observed position of the Si 111 peak is consistent with the NIST-certified position. A specimen of the sample is sandwiched between 3-μm-thick films and analyzed in transmission geometry. A beam-stop, short antiscatter extension, and an antiscatter knife edge are used to minimize the background generated by air. Soller slits for the incident and diffracted beams are used to minimize broadening from axial divergence. […]

[2] = Polymorph screen: crystallization, slurry, vapor stress and pH buffer experiments, XRPD result
Protocol: Antisolvent Precipitation: Solutions are prepared in various solvents and filtered through a 0.2-μm nylon filter into a vial. Antisolvent is then added until precipitation is observed. The resulting solids are isolated by vacuum filtration and analyzed.
Crash Cool (CC): Solutions are prepared in various solvents at an elevated temperature and filtered warm through a 0.2-μm nylon filter into a pre-cooled vial. The vial is placed in a (dry ice+isopropanol) cooling bath. Samples are placed into a freezer if no solids are observed to immediately precipitate. The resulting solids are isolated by vacuum filtration and analyzed.
(§2) Fast Evaporation (FE): Solutions are prepared in various solvents and sonicated between aliquot additions to assist in dissolution. Once a mixture reaches complete dissolution, as judged by visual observation, the solution is filtered through a 0.2-μm nylon filter. The filtered solution is allowed to evaporate at ambient conditions in an uncapped vial. Solutions are evaporated to dryness unless designated as partial evaporations. The solids that formed are isolated and analyzed.
Slow Cooling (SC): Solutions are prepared in various solvents at an elevated temperature. The solutions are filtered warm through a 0.2-μm nylon filter into a warm vial. The vial is capped and left on the hot plate, and the hot plate is turned off to allow the sample to cool slowly to ambient temperature. If no solids are present after cooling to ambient temperature, the sample is placed in a refrigerator and/or freezer for further cooling. Solids are collected by vacuum filtration and analyzed.
as §2, with “Slow” for “Fast”, “(SE):” for “(FE):”, “sonicated” for “sonicated between aliquot additions”, “a vial covered with aluminum foil perforated with pinholes.” for “an uncapped vial.”, “form” for “formed”
as §1
Vapor Diffusion (VD): Solutions are prepared in various solvents and filtered through a 0.2-μm nylon filter. The filtered solution is dispensed into a 1-dram vial, which is then placed inside a 20-mL vial containing antisolvent. The 1-dram vial is left uncapped and the 20-mL vial is capped to allow vapor diffusion to occur. The resulting solids are isolated and analyzed.
Vapor Stress (VS): A solid sample is placed into a 1-dram vial. The 1-dram vial is then placed into a 20-mL vial containing solvent. The 20-mL vial is capped and left at ambient conditions for a measured time period. Samples are analyzed after removal from the stress environment.
Crystalline Form A through Form F are prepared as follows by using Crystalline Form A obtained from Example 1 above. A variety of crystallization techniques are used, including evaporation, cooling, solvent/antisolvent precipitation, slurry, vapor stress, and vapor diffusion, as described above.
Crystalline Forms D, E, and F—Crystalline Form A is dissolved in pH adjusted buffered media. Undissolved solid or precipitate observed is analyzed by XRPD. Some experiments are conducted at elevated temperature to increase solubility, the undissolved solids are also analyzed by XRPD.
Crystalline Form A from Example 5 is used to make the following crystalline forms.

[3] = Dynamic vapor sorption/desorption isotherm (moisture balance); conditions: 25° C.
Excerpt: Based on the dynamic vapor sorption/desorption data collected (FIG. 3), Crystalline Form A obtained is a non-hygroscopic material.
Data acquisition parameters for dynamic vapor sorption/desorption isotherm: […]

[4] = Solution calorimetry (SolCal), heats of solution in methanol; conditions: methanol, 25° C., hydrochloride
Protocol: For each test, two heats of solution are obtained—one calculated using a calibration preceding the sample analysis and one calculated using a calibration following the sample analysis. Clear solutions are observed after each test.
Solution calorimetry is performed using a Thermometric 2225 Precision Solution calorimeter, a semi-adiabatic calorimeter. Solution calorimeter System v.1.2 software is used. Samples are weighed into glass crushing ampoules and are sealed using silicone rubber plugs and hot wax. Experiments are carried out in 100 mL of methanol at 25° C. The measurement of the heats of solution of the samples is both preceded and followed by calibrations using an internal heater. The heats of solution are calculated using dynamic of calibration model.

## Cl.c1ccc2cc([C@]34CNC[C@H]3C4)ccc2c1 [Crystalline Form A, (1R,5S)-1-(naphthalen-2-yl)-3-azabicyclo[3.1.0]hexane hydrochloride]
[1]
  solid form after slurry in dichloromethane: Product is Crystalline Form A; also recorded: does not cause a solvent mediated form conversion to Crystalline Form B
[2]; 1-propanol, CC (70° C. to dry ice/IPA), freezer/2 d
  XRPD Result: B + weak A
[2]; DCM, SE
  XRPD Result: A + B
[2]; EtOH, CC (70° C. to dry ice/IPA), freezer/2 d
  XRPD Result: C + weak A
[2]; EtOH, FE
  XRPD Result: A + B
[2]; EtOH, SC (70° C. to RT, refrigerator/2 d, freezer/8 d)
  XRPD Result: A + weak C
[2]; HFIPA/IPE, AS precipitation
  XRPD Result: A + weak
[2]; HFIPA, SE
  XRPD Result: A + weak B
[2]; IPA, CC (70° C. to dry ice/IPA), freezer/2 d, about 27 mg scale, 10 mg/mL
  XRPD Result: C + possible
[2]; TFE, SE
  XRPD Result: A + weak B
[3]
  weight loss upon initial equilibration at 5% RH: 0.03%
[3]; 5% to 95% RH
  hygroscopicity based on dynamic vapor sorption/desorption data: non-hygroscopic
[3]; sorption
  weight gain from 5% to 95% RH: 0.10%
[3]; desorption, Samp RH 4.95%
  Weight % chg: −0.032 % chg
[3]; desorption, Samp RH 15.20%
  Weight % chg: −0.025 % chg
[3]; desorption, Samp RH 25.12%
  Weight % chg: −0.021 % chg
[3]; desorption, Samp RH 35.13%
  Weight % chg: −0.016 % chg
[3]; desorption, Samp RH 45.09%
  Weight % chg: −0.013 % chg
[3]; desorption, Samp RH 55.08%
  Weight % chg: −0.007 % chg
[3]; desorption, Samp RH 64.96%
  Weight % chg: 0.003 % chg
[3]; desorption, Samp RH 75.28%
  Weight % chg: 0.019 % chg
[3]; desorption, Samp RH 85.08%
  Weight % chg: 0.037 % chg
[3]; sorption, Samp RH 5.06%
  Weight % chg: −0.034 % chg
[3]; sorption, Samp RH 15.24%
  Weight % chg: −0.025 % chg
[3]; sorption, Samp RH 24.81%
  Weight % chg: −0.024 % chg
[3]; sorption, Samp RH 34.82%
  Weight % chg: −0.019 % chg
[3]; sorption, Samp RH 44.81%
  Weight % chg: −0.016 % chg
[3]; sorption, Samp RH 54.86%
  Weight % chg: −0.012 % chg
[3]; sorption, Samp RH 64.82%
  Weight % chg: −0.005 % chg
[3]; sorption, Samp RH 74.66%
  Weight % chg: 0.005 % chg
[3]; sorption, Samp RH 84.55%
  Weight % chg: 0.024 % chg
[3]; sorption, Samp RH 94.54%
  Weight % chg: 0.068 % chg
[3]; start, Samp RH 1.70%
  Weight % chg: 0.000 % chg
[4]; triplicate, endothermic
  average heat of solution: 48.618 J/g
[4]; average of three replicates
  average heat of solution: 48.618 J/g
[4]; calculated using the calibration after breaking the sample vial, single replicates
  ΔH2 (heat of solution): 49.905 J/g and 50.168 J/g and 49.217 J/g
[4]; calculated using the calibration before breaking the sample vial, single replicates
  ΔH1 (heat of solution): 48.077 J/g and 46.050 J/g and 48.293 J/g
[4]; mean of the two calibrations, single replicates
  ΔHmean (heat of solution): 48.991 J/g and 48.109 J/g and 48.755 J/g
